These are literature values, as cited in patent publication US20090022779A1, “Phenytoin Formulations, and Uses Thereof in Wound Healing” (Royal College of Surgeons in Ireland, priority 2004, published 2009).

For the data set the following is noted: background statement.

For `O=C1N=C([O-])NC1(c1ccccc1)c1ccccc1.[Na+]` [Phenyloin sodium salt], the solubility in water entry is on record as “soluble”.

As to `O=C1NC(=O)C(c2ccccc2)(c2ccccc2)N1` [Phenyloin, 5,5-diphenylimidazolidine-2,4-dione], the solubility in water entry is listed as “only slightly soluble”.
